Experimental data published in patent US8188150B2, “Use of beta-aminoalcohols in the treatment of inflammatory disorders and pain” (Biocopea Limited, priority 2006, dated 2012).

Assays:
[1] = test system: IL-10; test: LPS Mouse Assay, serum IL-10 by ELISA; assay type: in vivo, Balb C ByJ mice; conditions: i.p. or oral, 30 minutes before 1 mg/kg LPS i.p.; serum 2 hours after LPS
Protocol: (§1) 7 week-old Balb C ByJ mice (24-28 g) were administered, either by i.p. (5 ml/kg) or oral (10 ml/kg) administration, with vehicle or test article. 30 minutes later these animals were challenged with an intraperitoneal injection of 1 mg/kg LPS. 2 hours after LPS challenge blood samples were collected under light isoflurane anaesthesia into normal tubes by retro-orbital puncture. Samples were allowed to clot at room temperature and then spun at 6000 g for 3 min at 4° C. Serum was stored at −20° C. until use. Serum TNFα and IL-10 levels were analysed in duplicate by ELISA technique.

[2] = test system: inflammation induced by carrageenan paw injection; test: Carrageenan Paw Assay; assay type: in vivo, male Wistar rats; conditions: oral gavage, half an hour before 2% carrageenan; paw measured at 1-5 hours
Protocol: Fasted (18 hour) male Wistar rats (105-130 g) were weighed and a basal mercury plethysmometer reading was taken of the right hind paw by submerging the paw in the mercury up to the tibiotarsal joint. Subsequently, vehicles, reference items and test articles were administered by oral gavage (10 ml/kg). Half an hour after treatment 0.1 ml of 2% carrageenan in 0.9% saline was injected into the subplanatar area of the right hind paw. The right paw was measured again with the plethysmometer at 1, 2, 3, 4 and 5 hours after carrageenan administration.

[3] = test system: TNFα; test: LPS Mouse Assay, serum TNFα by ELISA; assay type: in vivo, Balb C ByJ mice; conditions: i.p. or oral, 30 minutes before 1 mg/kg LPS i.p.; serum 2 hours after LPS
Protocol: as §1

Structure (SMILES): CC(C)(CO)NCC(=O)c1cc(Cl)c(N)c(Cl)c1 [Compound (3), 1-(4-Amino-3,5-dichlorophenyl)-2-(1-hydroxy-2-methylpropan-2-ylamino)ethanone]
- effect on serum IL-10 [1]: potentiating effects
- effect on inflammation induced by carrageenan paw injection [2]: dose-dependant inhibitory effect
- effect on serum TNFα [3]: strong inhibitory effects
